Data as given in ChEMBL document CHEMBL2429749, “Trichinenlides A-T, mexicanolide-type limonoids from Trichilia sinensis” (J Nat Prod, 2013).

The compounds below were run on RAW264.7 (assay: Antiinflammatory activity in mouse RAW264.7 cells assessed as inhibition of LPS-induced nitric oxide production preincubated for 2 hrs followed by LPS challenge measured after 24 hrs).
Format: functional, cell-based

Row | IC50 [µM] | Compound
1 | 3.33 | C/C=C/C(=O)O[C@H]1C(C)(C)[C@H](CC(=O)OC)[C@]2(C)C(=O)[C@@]1(O)[C@H]1O[C@]13[C@@H]1CC(=O)O[C@@H](c4ccoc4)[C@]1(C)CC[C@H]23
2 | 2.85 | C/C=C/C(=O)O[C@H]1C(C)(C)[C@H](CC(=O)OC)[C@]2(C)C(=O)[C@@]1(O)[C@H]1O[C@@]13C2=CC[C@]1(C)[C@H]3CC(=O)O[C@H]1c1ccoc1 [TRICHINENLIDE B]
3 | 1.88 | C/C=C/C(=O)O[C@H]1C(C)(C)[C@H](C(O)C(=O)OC)[C@]2(C)C(=O)[C@@]1(O)[C@H]1O[C@@]13C2=CC[C@]1(C)[C@H]3CC(=O)O[C@H]1c1ccoc1 (some centres undefined) [TRICHINENLIDE C]
4 | 5 | COc1cc(/C=C/C(=O)CC(=O)/C=C/c2ccc(O)c(OC)c2)ccc1O [CURCUMIN]
